# Laboratory results reported in article PMC10014103, “The immunometabolite itaconate stimulates OXGR1 to promote mucociliary clearance during the pulmonary innate immune response” (The Journal of Clinical Investigation, 2023).
# Several values for one entry are separate records, joined by “and”; a condition that tells them apart may be missing. Equal values may be shown once.
# How the values were obtained:
# [1] = system: respiratory epithelium mucin secretion; experiment: Intranasal administration, mucin-containing cells in nasal cavity (Alcian blue/PAS); format: in vivo, mouse; settings: intranasal 500 μM ITA, 1 hour
# Source text: Harvested mouse skulls were fixed in 4% paraformaldehyde overnight and decalcified with 12% EDTA for 2 weeks. After full decalcification, the snoots were trimmed in between the incisor teeth and the first molar teeth. Trimmed tissues were embedded with paraffin, and sections were taken from the most proximal aspect of the nasal cavity. Mucin-containing epithelial cells distributed in the basement membrane of the nasal cavity floor and septum were visualized by Alcian blue/PAS staining and manually counted.
# [2] = system: primary mouse respiratory epithelial cells (ALI culture); experiment: Bead movement in ALI culture of primary mouse respiratory epithelial cells; format: cell-based; settings: 500 μM ITA, Oxgr1+/+ vs Oxgr1–/–
# Method: . When they reached full confluence, the cells were differentiated by exposure to air and cultured in a serum-free medium for 20 days. ALI culturing of primary human bronchial epithelium was performed following the manufacturer’s manual ([…] Technologies). Briefly, cells were maintained in PneumaCult-Ex Plus medium on a Transwell insert. Medium on the lateral side was switched to PneumaCult-ALI medium. The apical side of the Transwell membrane was then carefully washed with prewarmed Dulbecco’s PBS (DPBS). Cells were differentiated by exposure to air for 3 weeks. The medium was changed every 2 days.
# For the measurement of bead movement in ALI culture, the apical side of the ALI culture inserts was washed with PBS 5 times to fully remove mucus. The inserts were transferred to HBSS buffer supplemented with 30 mM HEPES and the indicated ligand, and 20 μL bath buffer containing red fluorescent beads was added to the apical side. After 15 minutes of equilibration, bead movement was monitored with the BioTek Cytation 5 cell imaging system.
# [3] = system: primary human bronchial epithelial cells; experiment: Calcium imaging (Fluo-4AM) of primary human bronchial epithelial cells; format: cell-based; settings: 0.5 mM ITA
# Method: For calcium imaging of human primary bronchial epithelial cells, cells were infected with 2 CRISPR lentiviruses targeting OXGR1 and cultured for 2 days before calcium imaging. For calcium imaging of primary mouse cells, freshly isolated mouse tracheas were cut into rings, placed onto collagen-coated dishes, and cultured in DMEM supplemented with 10% FBS. Cells were loaded with 5 μM Fluo-4AM for 30 minutes in HBSS buffer, washed twice, and incubated for another 15 minutes for fully deesterification of Fluo-4AM. Cells loaded with Fluo-4AM were monitored with the BioTek Cytation 5 Cell imaging system every 300 ms for a total of 1.5 minutes after ligand administration. Fluorescence was quantified with ImageJ software (NIH).
# [4] = system: mucin 5b and β-defensin 1; experiment: ELISA of mucin 5b and β-defensin 1 in BAL of P. aeruginosa infected mice; format: in vivo, mouse; settings: ITA intranasal supplementation, P. aeruginosa infection
# Source text: Mucins and antimicrobial polypeptides are essential immune defense components secreted by the respiratory tract ([41], [42]). To test the hypothesis that ITA/OXGR1 signaling may alter the concentration of mucins and antimicrobial polypeptides, we performed an ELISA to quantify the concentration of mucin 5b and β-defensin 1 in the mouse models of P. aeruginosa infection. […] It should be noted that Oxgr1 activation by ITA can simultaneously facilitate mucus secretion and mucus transport (Figure 4). These 2 “opposite” effects of ITA/OXGR1 on mucus may explain the observation of a lack of significant change in mucin 5b and β-defensin 1 in the airway’s surface liquid.
# [5] = system: OXGR1; experiment: ERK phosphorylation by Western blotting in OXGR1-expressing HEK293 cells; format: cell-based, human; settings: 5 μM to 1 mM for 15 minutes
# Method: HEK293 cells were transiently transfected with plasmids expressing empty vector or FLAG-tagged OXGR1 using PolyJet reagent. The medium was switched to serum-free DMEM 36 hours after transfection. After serum starvation for another 12 hours, cells were stimulated with the indicated ligand and lysed in Laemmli buffer. Protein lysate was separated on standard SDS-PAGE, transferred onto a PVDF membrane, and then subjected to immunoblotting with the following antibodies: anti–p-ERK (catalog 4370, Cell Signaling Technology); anti-Flag (catalog 14793, Cell Signaling Technology); anti-IRG1/anti-ACOD1 (catalog 19857, Cell Signaling Technology); anti-Myc (catalog 2278, Cell Signaling Technology); anti-ERK (catalog 67170-1-Ig, Proteintech); and anti-actin (catalog A00702, GenScript).
# [6] = target: T1, mouse OXGR1 (Mus musculus, UniProt Q6IYF8); experiment: Aequorin assay (calcium mobilization) in HEK293 cells overexpressing mouse OXGR1; format: cell-based; settings: aequorin assay, mOXGR1 in HEK293 cells; read-out: EC50
# T1 construct: expressed in transfected cells; host or cells: HEK293
# T1 sequence (Q6IYF8 whole entry): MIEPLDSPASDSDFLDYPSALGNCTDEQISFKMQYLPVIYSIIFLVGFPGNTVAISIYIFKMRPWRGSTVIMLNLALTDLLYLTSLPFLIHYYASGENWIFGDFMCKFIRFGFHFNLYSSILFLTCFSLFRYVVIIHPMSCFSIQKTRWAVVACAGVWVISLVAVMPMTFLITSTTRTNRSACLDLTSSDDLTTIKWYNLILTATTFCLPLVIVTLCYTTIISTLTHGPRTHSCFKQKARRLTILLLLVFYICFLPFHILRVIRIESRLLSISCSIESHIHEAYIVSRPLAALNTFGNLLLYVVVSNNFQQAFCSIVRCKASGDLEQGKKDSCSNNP
# Method: Thirty-six hours after transfection, cells were maintained in serum-free medium for 12 hours and then loaded with 5 μM coelenterazine for 3 hours. Cells were trypsinized and resuspended at a density of 5 × 10^5 cells/mL in HBSS supplemented with 10 mM HEPES and 0.5% BSA. Cell suspensions of 100 μL were aliquoted into 96-well plates.
# [7] = system: Pseudomonas aeruginosa strain PAO1; experiment: Mouse intranasal infection with P. aeruginosa strain PAO1, CFU in BAL and lung; format: in vivo; settings: intranasal 1 mM ITA with PAO1, 12 hours after infection
# Method: A 1 × 10^7 log-phase PAO1 strain in 40 μL PBS was used for infection of the mice. Mice were gently restrained by the scruff at a 45° angle. PBS with the indicated strains was delivered to the nares. PBS alone or with 1 mM ITA was codelivered along with PAO1. Mouse mouths were covered during the whole procedure to ensure complete inhalation into the nose and the lower respiratory tract. BAL and lung tissue were collected 12 hours of infection and plated in cetyl trimethyl ammonium bromide (CTAB) selection agar. The numbers of CFU were counted after 18 hours of culture.
# [8] = target: human OXGR1 (Homo sapiens, UniProt Q96P68); experiment: Stress fiber assay in NIH3T3 cells stably expressing OXGR1; format: cell-based, mouse; settings: 500 μM ITA, 30 minutes, G12/13 coupling
# Method: For the stress fiber assay, NIH3T3 cells stably expressing OXGR1 were treated with 500 μM ITA or 10 μM lysophosphatidic acid (LPA) for 30 minutes. Cells were fixed with 4% paraformaldehyde and permeabilized with 0.1% Triton X-100. Stress fibers were stained with FITC-phalloidin (Invitrogen, Thermo Fisher Scientific). Nuclei were stained with DAPI. Immunofluorescence images were captured with a Leica SP8 laser-scanning confocal microscope.
smiles,measurement,setting,value
"C=C(CC(=O)O)C(=O)O [ITA, itaconate]","mucin-containing cells in respiratory epithelium, Oxgr1+/+ mice",[1],decrease of mucin-containing cells
same,"mucin-containing cells in respiratory epithelium, Oxgr1–/– mice",[1],did not observe an effect
same,movement of beads,[2],could accelerate the movement of beads in an Oxgr1-dependent manner
same,calcium mobilization,[3]; control cells,robust calcium mobilization
same,calcium mobilization after depletion of OXGR1,[3]; sgOXGR1,abolished by depletion of OXGR1
same,level of mucin 5b in BAL,[4],Neither ITA intranasal supplementation nor Irg1 or Oxgr1 KO altered the levels
same,level of β-defensin 1 in BAL,[4],Neither ITA intranasal supplementation nor Irg1 or Oxgr1 KO altered the levels
same,phosphorylation of ERK,[5],dose-dependently induced
same,EC50,[6],416 µM and ~400 µM
same,"bacterial overgrowth phenotype (CFU in BAL and lung), Irg1–/– mice",[7],rescued the bacterial overgrowth phenotype
same,stress fiber formation,[8],failed to affect stress fiber formation
